Source: patent US20040063662A1, “Selenophene anti-tumor agents” (priority 1996, published 2004)

Tests used:
SF-295 = assay: NCI human tumor cell panel: SF-295 (CNS Cancer); assay type: cell-based
LOX IMVI = assay: NCI human tumor cell panel: LOX IMVI (Melanoma); assay type: cell-based
HT29 = assay: NCI human tumor cell panel: HT29 (Colon Cancer); assay type: cell-based
SW-620 = assay: NCI human tumor cell panel: SW-620 (Colon Cancer); assay type: cell-based
UACC-257 = assay: NCI human tumor cell panel: UACC-257 (Melanoma); assay type: cell-based
M14 = assay: NCI human tumor cell panel: M14 (Melanoma); assay type: cell-based
HOP-62 = assay: NCI human tumor cell panel: HOP-62 (Non-Small Cell Lung Cancer); assay type: cell-based
UACC-62 = assay: NCI human tumor cell panel: UACC-62 (Melanoma); assay type: cell-based
OVCAR-3 = assay: NCI human tumor cell panel: OVCAR-3 (Ovarian Cancer); assay type: cell-based
OVCAR-4 = assay: NCI human tumor cell panel: OVCAR-4 (Ovarian Cancer); assay type: cell-based; conditions: OVCAR-4, read-out: Log10 GI50 (converted)
HCT-116 = assay: NCI human tumor cell panel: HCT-116 (Colon Cancer); assay type: cell-based
UO-31 = assay: NCI human tumor cell panel: UO-31 (Renal Cancer); assay type: cell-based
EKVX = assay: NCI human tumor cell panel: EKVX (Non-Small Cell Lung Cancer); assay type: cell-based
HCC-2998 = assay: NCI human tumor cell panel: HCC-2998 (Colon Cancer); assay type: cell-based
MCF7 = assay: NCI human tumor cell panel: MCF7 (Breast Cancer); assay type: cell-based
NCI-H460 = assay: NCI human tumor cell panel: NCI-H460 (Non-Small Cell Lung Cancer); assay type: cell-based
KM12 = assay: NCI human tumor cell panel: KM12 (Colon Cancer); assay type: cell-based
MOLT-4 = assay: NCI human tumor cell panel: MOLT-4 (Leukemia); assay type: cell-based
SNB-75 = assay: NCI human tumor cell panel: SNB-75 (CNS Cancer); assay type: cell-based
SF-539 = assay: NCI human tumor cell panel: SF-539 (CNS Cancer); assay type: cell-based
HCT-15 = assay: NCI human tumor cell panel: HCT-15 (Colon Cancer); assay type: cell-based
SR = assay: NCI human tumor cell panel: SR (Leukemia); assay type: cell-based
OVCAR-8 = assay: NCI human tumor cell panel: OVCAR-8 (Ovarian Cancer); assay type: cell-based
U251 = assay: NCI human tumor cell panel: U251 (CNS Cancer); assay type: cell-based
HOP-92 = assay: NCI human tumor cell panel: HOP-92 (Non-Small Cell Lung Cancer)
NCI-H322M = assay: cells; assay type: cell-based; conditions: Homo sapiens, read-out: Log10 TGI (converted)
MDA-N = assay: NCI human tumor cell panel: MDA-N (Breast Cancer); assay type: cell-based
ACHN = assay: NCI human tumor cell panel: ACHN (Renal Cancer); assay type: cell-based
RPMI-8226 = assay: NCI human tumor cell panel: RPMI-8226 (Leukemia); assay type: cell-based
MDA-MB-435 = assay: NCI human tumor cell panel: MDA-MB-435 (Breast Cancer); assay type: cell-based
MALME-3M = assay: NCI human tumor cell panel: MALME-3M (Melanoma); assay type: cell-based; conditions: Malme-3M
DU-145 = assay: NCI human tumor cell panel: DU-145 (Prostate Cancer); assay type: cell-based
[1] = read-out: Log10 GI50 (converted)
[2] = read-out: Log10 TGI (converted)

OCc1ccc(-c2ccc(-c3ccc(CO)[se]3)s2)s1 [compound 688830]
GI50 (SF-295; SF-295, read-out: Log10 GI50 (converted)): 20.9 µM | IC (TGI) (SF-295; SF-295, read-out: Log10 TGI (converted)): 56.2 µM | GI50 (LOX IMVI; [1]): 13.5 µM | IC (TGI) (LOX IMVI; [2]): 27.5 µM | GI50 (HT29; HT-29, HT29, read-out: Log10 GI50 (converted)): 0.224 µM | IC (TGI) (HT29; HT-29, HT29, read-out: Log10 TGI (converted)): 43.7 µM | GI50 (SW-620; SW-620, read-out: Log10 GI50 (converted)): 0.0398 µM | IC (TGI) (SW-620; SW-620, read-out: Log10 TGI (converted)): 25.1 µM | GI50 (UACC-257; UACC-257, read-out: Log10 GI50 (converted)): 0.0166 µM | IC (TGI) (UACC-257; UACC-257, read-out: Log10 TGI (converted)): 0.0457 µM | GI50 (M14; M14, read-out: Log10 GI50 (converted)): 37.2 µM | IC (TGI) (M14; M14, read-out: Log10 TGI (converted)): > 100 µM | GI50 (HOP-62; HOP-62, read-out: Log10 GI50 (converted)): 0.0617 µM | IC (TGI) (HOP-62; HOP-62, read-out: Log10 TGI (converted)): 28.2 µM | GI50 (UACC-62; UACC-62, read-out: Log10 GI50 (converted)): 0.0135 µM | IC (TGI) (UACC-62; UACC-62, read-out: Log10 TGI (converted)): > 100 µM | GI50 (OVCAR-3; OVCAR-3, read-out: Log10 GI50 (converted)): < 0.01 µM | IC (TGI) (OVCAR-3; OVCAR-3, read-out: Log10 TGI (converted)): 0.0562 µM | GI50 (OVCAR-4): 0.105 µM | GI50 (HCT-116; HCT-116, read-out: Log10 GI50 (converted)): 0.0275 µM | IC (TGI) (HCT-116; HCT-116, read-out: Log10 TGI (converted)): 17.4 µM | GI50 (UO-31; UO-31, read-out: Log10 GI50 (converted)): > 100 µM | IC (TGI) (UO-31; UO-31, read-out: Log10 TGI (converted)): > 100 µM | GI50 (EKVX; [1]): 19.5 µM | IC (TGI) (EKVX; [2]): 66.1 µM | GI50 (HCC-2998; HCC-2998, read-out: Log10 GI50 (converted)): 0.0631 µM | IC (TGI) (HCC-2998; HCC-2998, read-out: Log10 TGI (converted)): 11.5 µM | GI50 (MCF7; MCF7, read-out: Log10 GI50 (converted)): 0.0166 µM | IC (TGI) (MCF7; MCF7, read-out: Log10 TGI (converted)): > 100 µM | GI50 (NCI-H460; NCI-H460, read-out: Log10 GI50 (converted)): 0.017 µM | IC (TGI) (NCI-H460; NCI-H460, read-out: Log10 TGI (converted)): 0.646 µM | GI50 (KM12; KM12, read-out: Log10 GI50 (converted)): 47.9 µM | IC (TGI) (KM12; KM12, read-out: Log10 TGI (converted)): > 100 µM | GI50 (MOLT-4; MOLT-4, read-out: Log10 GI50 (converted)): 38.9 µM | IC (TGI) (MOLT-4; MOLT-4, read-out: Log10 TGI (converted)): > 100 µM | GI50 (SNB-75; SNB-75, read-out: Log10 GI50 (converted)): 25.7 µM | IC (TGI) (SNB-75; SNB-75, read-out: Log10 TGI (converted)): > 100 µM | GI50 (SF-539; SF-539, read-out: Log10 GI50 (converted)): 15.5 µM | IC (TGI) (SF-539; SF-539, read-out: Log10 TGI (converted)): 36.3 µM | GI50 (HCT-15; HCT-15, read-out: Log10 GI50 (converted)): 28.8 µM | IC (TGI) (HCT-15; HCT-15, read-out: Log10 TGI (converted)): > 100 µM | GI50 (SR; [1]): 24.5 µM | IC (TGI) (SR; [2]): 72.4 µM | GI50 (OVCAR-8; OVCAR-8, read-out: Log10 GI50 (converted)): 6.92 µM | IC (TGI) (OVCAR-8; OVCAR-8, read-out: Log10 TGI (converted)): 30.9 µM | GI50 (U251; U-251, U251, read-out: Log10 GI50 (converted)): 0.0832 µM | IC (TGI) (U251; U-251, U251, read-out: Log10 TGI (converted)): 20.9 µM | GI50 (HOP-92; HOP-92, read-out: Log10 GI50 (converted)): 28.2 µM | IC (TGI) (HOP-92; HOP-92, read-out: Log10 TGI): > 100 µM | IC (TGI) (NCI-H322M): 20 µM | GI50 (MDA-N; [1]): 97.7 µM | IC (TGI) (MDA-N; [2]): > 100 µM | GI50 (ACHN; [1]): 20.9 µM | IC (TGI) (ACHN; [2]): > 100 µM | GI50 (RPMI-8226; RPMI-8226, read-out: Log10 GI50 (converted)): 37.2 µM | IC (TGI) (RPMI-8226; RPMI-8226, read-out: Log10 TGI): > 100 µM | GI50 (MDA-MB-435; MDA-MB-435, read-out: Log10 GI50 (converted)): > 100 µM | IC (TGI) (MDA-MB-435; MDA-MB-435, read-out: Log10 TGI (converted)): > 100 µM | GI50 (MALME-3M; [1]): 43.7 µM | IC (TGI) (MALME-3M; [2]): > 100 µM | GI50 (DU-145; DU-145, read-out: Log10 GI50 (converted)): 22.9 µM | IC (TGI) (DU-145; DU-145, read-out: Log10 TGI (converted)): > 100 µM
